The text below walks through data of patent US5849766A, “Carbamoyl substituted heterocycles” (Eli Lilly and Company, priority 1997, dated 1998).

For this experiment, the system named is thromboxane receptor. As to the kind of experiment: Absence of Agonist Activity (pressor response in pithed rats). Type of experiment: in vivo, rat. An excerpt: 3. Absence of Agonist Activity.

As to `O=C(O)CCC/C=C\CC1C2CCC(C2)C1NS(=O)(=O)c1ccccc1` (centres unmarked) [Example S-145], the “increase in the mean arterial pressure” value (0.1 mg/kg i.v., at one minute after dosing) was “transient, but significant, increase in the mean arterial pressure”.

For the compound `O=C(O)CCCC/C=C(\c1ccc(-c2nc(C(=O)NCCCCC3CCCCC3)co2)cc1)c1cccnc1` [Example 2, (E)-7-[4-[4-[[(4-Cyclohexylbutyl)amino]carbonyl]-2-oxazolyl]phenyl]-7-(3-pyridyl)hept-6-enoic Acid], the “pressor response (TXA2 agonist activity)” value (i.v., pithed rats, doses up to 10 mg/kg) is on record as “absence of a pressor response”.
